Results reported in patent US20120114706A1, “Endorphin Therapy Compositions and Methods of Use Thereof” (priority 2008, published 2012).
“Also recorded” adds a separate entry of the source.

Legend:
[1] = tested on: rat hypothalamic neuronal stem cells (NSCs); assay: Differentiation of hypothalamic neuronal stem cells to BEP neurons in culture; type: cell-based; conditions: agent alone, 0.1-10 μM
Procedure: Fetal brains were obtained from 17-day-old pregnant rats (Simonsen laboratories; Gilroy, […].). Mediobasal hypothalamic tissues from these rats were dissected out and cells from these tissues were dissociated, and mixed hypothalamic cell cultures were prepared as previously described (De et al. (1994) J. Biol. Chem., 269:26697-26705). Neurons were separated from glial cells by filtering mixed hypothalamic cells through a 48-μM nylon mesh. Then hypothalamic cells were sedimented at 400 g for 10 minutes; pellets were re-suspended in HEPES-buffered Dulbecco's Modified Eagle's Medium (HDMEM, 4.5 g/l glucose; Sigma, St. Louis, Mo.); and cells were cultured into poly-ornithine coated 25-cm^2 tissue culture flasks (2.5 million cells/flask) in HDMEM-containing 10% fetal bovine serum (FBS) and 1% penicillin/streptomycin. On day 2, the culture medium was replaced with HDMEM containing 10% FBS, 33.6 μg/ml uridine and 13.6 μg/ml 5-fluodeoxyuridine to prevent the overgrowth of astroglial cells. All of these chemicals were obtained from Sigma. On day 3, the culture medium was replaced with HDMEM-containing serum supplement (30 nM selenium, 20 nM progesterone, 1 μM iron-free human transferrin, 5 μM insulin, and 100 μM putrescin) and 1% penicillin/streptomycin. […] By this time, these cultures were approximately 85-90% neurons, as determined by MAP-2 positivity. […]

MADB106 cells = assay: Pharmacologic modification of autonomic influence on immune system and lung metastasis; type: in vivo, rat; conditions: for PBMC NK cell activity / macrophage migration activity: 24 hours after MADB106 inoculation, naloxone 10, MP/MET 0.8, MLA 2.5 mg/kg or saline; for effect on β-EP elimination of tumor cell lung retention: β-EP transplanted Fischer rats, naloxone 10, MP/MET 0.8, MLA 2.5 mg/kg for 8 days
Procedure: 48 β-EP implanted (SC) male Fischer rats and 48 control (C) male Fischer rats were divided into 8 groups, treated with saline, Naloxone (10 mg/kg body weight), Metaproterenol (MP, 0.8 mg/kg body weight), or Methyllycaconitine (MLA, 2.5 mg/kg body weight), respectively. Animals were treated with drugs for 8 days. In the second day of drug injection, animals were inoculated with MADB106 cells (100,000/0.2 ml/rat). 24 hours after tumor cell inoculation, blood was collected by orbital puncture. Plasma was collected, and PBMCs were separated for migration assay and NK cytolytic assay. 7 days after tumor inoculation, blood was taken again by orbital puncture. Plasma was collected, and PBMCs were separated for migration assay and T cell cytolytic assay. After 6 weeks, animals were sacrificed, and brains, spleens and blood were frozen. Lungs were fixed in formalin and processed to H&E staining. […] However, 7 days after tumor inoculation, there isn't a clear pattern of T cell cytolytic activity and macrophage migration activity between groups (FIGS. 30B and 30D).
It was hypothesized that the beneficial effect of BEP neuron transplants on immune function is regulated through autonomic nervous system, and that central BEP modulate peripheral immune function by inhibiting the sympathetic activity and activating the parasympathetic activity. Metaproterenol (MET) is an agonist for β-receptors, which are a class of G protein-coupled receptors that are targets of the catecholamines, especially norepinephrine and epinephrine (Dokur et al. (2004) J Neuroimmunol 5:148-57; Page et al. (2008) J Neuroimmunol 193:113-9). Methyllycaconitine (MLA) is a selective antagonist of α7 nicotine acetylcholine receptor (α7 nAChR; Wu et al. (2011) Clin Cancer Res 17:3533-41). By injecting MET and MLA i.p., the stimulation of sympathetic nerves and inhibition of parasympathetic nerves was mimicked. Naloxone, an opiate receptor antagonist, was used to test whether BEP neuronal effects is acted via opiodergic receptor (Boyadjieva et al. (2006) Alcohol Clin Exp Res 30:1761-7). Forty-eight BEP neuron-transplanted Fischer rats and 48 control rats were divided into 8 groups and treated with saline, naloxone (10 mg/kg body weight), MET (0.8 mg/kg body weight), or MLA (2.5 mg/kg body weight) for 8 days (the doses used for these drugs are recognized as effective biological doses). A day after the first injection of these agents, animals were inoculated with MADB106 cells (100,000/0.2 mL/rat). Twenty-four hours after tumor cell inoculation, blood was collected by orbital puncture. Plasma was collected, and peripheral blood mononuclear cells (PBMC) were separated for migration assay and NK cytolytic assay. These animals continued receiving the blocker treatments for 7 days. After 4 weeks they were sacrificed, their lungs were fixed in formalin and processed to H&E staining for determination of cancer pathology. Brain tissues were processed for verification of the site and viability of BEP cell transplantation.

[2] = tested on: differentiated BEP neurons; assay: PGE1-induced BEP release and POMC expression of differentiated neurons; type: cell-based, rat; conditions: PGE1 10 μM
Procedure: Enriched hypothalamic neurons were maintained in HDMEM, containing 10% FBS, for 3 weeks. Each week, cells were trypsinized and cultured. By the beginning of the third week, many spheres started to develop. These spheres were separated and dissociated into single cells by using trypsin/EDTA (Sigma) solution. They were then cultured in suspension or in poly-L-ornithine-coated 24-well plates (20,000 cells/well) in stem cell medium (DME F-12, […] (LIF), 0.1 μg/ml; L-glutamine, 10 mM; rat bFGF, 20 ng/ml; Mem amino acids solution, MAA, 0.5%; all of the chemicals were from Sigma except that bFGF was obtained from R&D Systems, Minneapolis, Minn.). Cells were cultured for 2 weeks, during which they grew and developed secondary spheres. Some of these cultures were used for immunocytochemical localization of nestin staining to determine whether they were neurospheres. These neurospheres were maintained in cultures for several months by regularly changing the medium and by splitting cells. The secondary spheres were re-suspended and cultured in poly-L-ornithine-coated 24-well plates (20,000/well; for physiological studies) or in poly-L-ornithine-coated 8-well permanox slides (1000 cells/slide; NaIg Nunc International Corp., IL; for histochemical studies). The differentiation experiments were performed by treating these cells for 1 week with PACAP (1-10 μM; SynPep) and dbcAMP (1-10 μM; Sigma) or a combination of both, and then in defined cell culture medium without the drugs for 1 week. At day 3, day 7 and day 14 the immunocytochemical, biochemical and/or real-time RT-PCR analyses were performed.
The immunoreactive β-endorphin levels in culture medium samples were measured by a radioimmunoassay system (De et al. (1994) J. Biol. Chem., 269:26697-26705). All the samples were dried and reconstituted in assay buffer and measured in duplicate in a single assay. The minimum amount of β-endorphin detectable was 3 pg/tube.
Expression levels of POMC mRNA in NSCs and differentiated cells were measured by a quantitative real-time RT-PCR (TaqMan assay) on an ABI PRISM 7700 Sequence Detector (PerkinElmer Applied Biosystems, Foster City, Calif.) as described previously (Chen et al. (2004) J. Neurochem., 88:1547-1554). […] The expression of POMC mRNA was detected using a POMC gene-specific primer pair and probe (TaqMan Gene Expression Assay, Rn00595020_ml; Applied Biosystems; Foster City, Calif.). […] The relative quantity of mRNA was calculated by relating the PCR threshold cycle obtained from the tested samples to relative standard curves degenerated from a serial dilution of cDNA prepared from the total RNA. The POMC mRNA level in each sample was normalized with the level of GAPDH mRNA which was measured by a control reagent (PerkinElmer Applied Biosystems). […]

| Compound | effect on neurosphere differentiation [1] | PBMC NK cell activity (MADB106 cells) | macrophage migration activity (MADB106 cells) | effect on β-EP elimination of tumor cell lung retention (MADB106 cells) | further results |
| --- | --- | --- | --- | --- | --- |
| CCCC(=O)Nc1ncnc2c1ncn2[C@@H]1O[C@@H]2COP(=O)(O)O[C@H]2[C@H]1OC(=O)CCC [dbcAMP, dibutyryl cAMP] | moderate effect | – | – | – | – |
| pituitary adenylate cyclase-activating peptide [PACAP] | moderate effect | – | – | – | – |
| CCN1C[C@]2(COC(=O)c3ccccc3N3C(=O)C[C@H](C)C3=O)CC[C@H](OC)[C@@]34[C@@H]5C[C@H]6[C@H](OC)[C@@H]5[C@](O)(C[C@@H]6OC)[C@@](O)([C@@H](OC)[C@H]23)[C@@H]14 [MLA, Methyllycaconitine] | – | reversed the effect of β-EP; also recorded: moderate or strong inhibitory effect | reversed the effect of β-EP; also recorded: moderate or strong inhibitory effect | stopped the effect of β-EP; also recorded: prevented, at various degrees | – |
| CC(C)NCC(O)c1cc(O)cc(O)c1 (stereo not drawn) [MP, Metaproterenol] | – | reversed the effect of β-EP | reversed the effect of β-EP | stopped the effect of β-EP | PBMC NK cell activity (MADB106 cells; listed as MET): moderate or strong inhibitory effect; macrophage migration activity (MADB106 cells; listed as MET): moderate or strong inhibitory effect; effect on β-EP elimination of tumor cell lung retention (MADB106 cells; listed as MET): prevented, at various degrees |
| CCCCC[C@H](O)/C=C/[C@H]1[C@H](O)CC(=O)[C@@H]1CCCCCCC(=O)O [PGE1, prostaglandin E1] | – | – | – | – | BEP release ([2]; cells at 1 week): only moderately enhanced; POMC expression ([2]; cells at 1 week): no effect; BEP-release response ([2]; cells at 2 weeks): significantly increased; POMC-expression response ([2]; cells at 2 weeks): significantly increased |
